From ChEMBL document CHEMBL1201862, “PubChem BioAssay data set” (2004)
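Exposure lasted 48 hours, with cells grown in 96-well plates and compounds tested at five concentrations. Abbreviation: GI50, concentration required for 50% inhibition of growth.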 Active and inactive are the calls of the source. No stated cut-off is given here; in the data, active = GI50 up to about 1.1 µM and inactive = higher.

Experiments:
Test in all cases: NCI tumour cell line growth inhibition, 48 h
MOLT-4 = tested on: MOLT-4
K562 = tested on: K562
HOP-92 = tested on: HOP-92
SK-MEL-5 = tested on: SK-MEL-5
A549 = tested on: A549
UACC-257 = tested on: UACC-257
MDA-MB-435 = tested on: MDA-MB-435
HL-60 = tested on: HL-60
SF-295 = tested on: SF-295
U-251 = tested on: U-251
MCF7 = tested on: MCF7
SN12C = tested on: SN12C
DU-145 = tested on: DU-145
NCI-H23 = tested on: NCI-H23
EKVX = tested on: EKVX
M14 = tested on: M14
SK-MEL-28 = tested on: SK-MEL-28
TK-10 = tested on: TK-10
BT-549 = tested on: BT-549
SR = tested on: SR

Structure (SMILES)	GI50 (MOLT-4)	GI50 (K562)	GI50 (HOP-92)	GI50 (SK-MEL-5)	GI50 (A549)	GI50 (UACC-257)	GI50 (MDA-MB-435)	GI50 (HL-60)	GI50 (SF-295)	GI50 (U-251)	GI50 (MCF7)	GI50 (SN12C)	GI50 (DU-145)	GI50 (NCI-H23)	GI50 (EKVX)	GI50 (M14)	GI50 (SK-MEL-28)	GI50 (TK-10)	GI50 (BT-549)	GI50 (SR)
C[C@]12CC[C@@H]3c4ccc(O)cc4CC[C@H]3[C@@H]1CC[C@@H]2OC(=O)CCc1ccccc1	17 µM (inactive)	11 µM (inactive)	19.1 µM (inactive)	17.1 µM (inactive)	22.3 µM (inactive)	17.9 µM (inactive)	13.1 µM (inactive)	20.1 µM (inactive)	19.3 µM (inactive)	18.7 µM (inactive)	17.5 µM (inactive)	22.9 µM (inactive)	19.5 µM (inactive)	17.7 µM (inactive)	10.8 µM (inactive)	17.6 µM (inactive)	20.1 µM (inactive)	18.5 µM (inactive)	18.5 µM (inactive)	–
COc1ccccc1C(=O)N(Cc1ccccc1)c1ccc(Cl)c(C(=O)OC(C)C)c1	14.4 µM (inactive)	6.89 µM (inactive)	6.67 µM (inactive)	11.7 µM (inactive)	19.4 µM (inactive)	14.6 µM (inactive)	27 µM (inactive)	9.4 µM (inactive)	14.3 µM (inactive)	36.6 µM (inactive)	47.8 µM (inactive)	27.6 µM (inactive)	32.4 µM (inactive)	20.6 µM (inactive)	16.7 µM (inactive)	20.7 µM (inactive)	41.7 µM (inactive)	26.8 µM (inactive)	34.4 µM (inactive)	–
CC1CCC(C(C)C)C(OC(=O)NCn2cc(-c3ccccc3)nn2)C1 (configuration not stated)	–	> 100 µM (inactive)	> 100 µM (inactive)	> 100 µM (inactive)	> 100 µM (inactive)	> 100 µM (inactive)	–	> 100 µM (inactive)	> 100 µM (inactive)	> 100 µM (inactive)	> 100 µM (inactive)	> 100 µM (inactive)	> 100 µM (inactive)	> 100 µM (inactive)	> 100 µM (inactive)	> 100 µM (inactive)	> 100 µM (inactive)	75.5 µM (inactive)	> 100 µM (inactive)	> 100 µM (inactive)
CC(C)NCCC(O)c1cc2ccccc2o1 (configuration not stated)	20.4 µM (inactive)	1.06 µM (active)	> 100 µM (inactive)	> 100 µM (inactive)	> 100 µM (inactive)	> 100 µM (inactive)	> 100 µM (inactive)	–	> 100 µM (inactive)	> 100 µM (inactive)	> 100 µM (inactive)	30.1 µM (inactive)	> 100 µM (inactive)	> 100 µM (inactive)	> 100 µM (inactive)	> 100 µM (inactive)	> 100 µM (inactive)	> 100 µM (inactive)	> 100 µM (inactive)	–
CC1=NNC(=O)C1C1C=C(c2c[nH]c3ccccc23)OC1=O (configuration not stated)	> 100 µM (inactive)	62.4 µM (inactive)	> 100 µM (inactive)	> 100 µM (inactive)	> 100 µM (inactive)	> 100 µM (inactive)	> 100 µM (inactive)	> 100 µM (inactive)	> 100 µM (inactive)	> 100 µM (inactive)	–	> 100 µM (inactive)	> 100 µM (inactive)	> 100 µM (inactive)	> 100 µM (inactive)	> 100 µM (inactive)	> 100 µM (inactive)	> 100 µM (inactive)	> 100 µM (inactive)	–
CCOC(=O)C(C(=O)c1ccccc1C(=O)OC)=P(c1ccccc1)(c1ccccc1)c1ccccc1	> 10 µM (inactive)	> 10 µM (inactive)	> 10 µM (inactive)	> 10 µM (inactive)	> 10 µM (inactive)	> 10 µM (inactive)	> 10 µM (inactive)	> 10 µM (inactive)	> 10 µM (inactive)	> 10 µM (inactive)	> 10 µM (inactive)	> 10 µM (inactive)	> 10 µM (inactive)	> 10 µM (inactive)	> 10 µM (inactive)	> 10 µM (inactive)	> 10 µM (inactive)	> 10 µM (inactive)	> 10 µM (inactive)	–
O=CNNC(=O)Nc1cccc2ccccc12	> 100 µM (inactive)	> 100 µM (inactive)	> 10 µM (inactive)	> 100 µM (inactive)	> 100 µM (inactive)	> 100 µM (inactive)	> 100 µM (inactive)	> 100 µM (inactive)	> 100 µM (inactive)	> 100 µM (inactive)	> 100 µM (inactive)	> 100 µM (inactive)	> 100 µM (inactive)	> 100 µM (inactive)	> 100 µM (inactive)	> 100 µM (inactive)	> 100 µM (inactive)	> 100 µM (inactive)	–	> 100 µM (inactive)
COc1cccc(OCC(=N/NC(=O)c2ccncc2)/N=C/c2cccnc2)c1	49.7 µM (inactive)	> 100 µM (inactive)	21 µM (inactive)	–	> 100 µM (inactive)	> 100 µM (inactive)	> 100 µM (inactive)	> 100 µM (inactive)	> 100 µM (inactive)	> 100 µM (inactive)	> 100 µM (inactive)	–	> 100 µM (inactive)	> 100 µM (inactive)	> 100 µM (inactive)	> 100 µM (inactive)	> 100 µM (inactive)	> 100 µM (inactive)	> 100 µM (inactive)	–
COc1nc(O)nc2c1C(c1ccc([N+](=O)[O-])cc1)c1c(OC)nc(O)nc1O2	> 100 µM (inactive)	–	–	> 100 µM (inactive)	> 100 µM (inactive)	> 100 µM (inactive)	> 100 µM (inactive)	> 100 µM (inactive)	> 100 µM (inactive)	> 100 µM (inactive)	–	> 100 µM (inactive)	> 100 µM (inactive)	> 100 µM (inactive)	> 100 µM (inactive)	> 100 µM (inactive)	> 100 µM (inactive)	> 100 µM (inactive)	> 100 µM (inactive)	–
Cc1nc2c(=S)n(C)ncc2[nH]1	> 100 µM (inactive)	> 100 µM (inactive)	–	> 100 µM (inactive)	> 100 µM (inactive)	> 100 µM (inactive)	> 100 µM (inactive)	> 100 µM (inactive)	> 100 µM (inactive)	> 100 µM (inactive)	> 100 µM (inactive)	> 100 µM (inactive)	–	> 100 µM (inactive)	> 100 µM (inactive)	> 100 µM (inactive)	> 100 µM (inactive)	> 100 µM (inactive)	> 100 µM (inactive)	–
N/C1=C/C(=O)NC(=O)c2c(c3ccccc3oc2=O)C1	> 100 µM (inactive)	> 100 µM (inactive)	> 100 µM (inactive)	–	> 100 µM (inactive)	> 100 µM (inactive)	> 100 µM (inactive)	> 100 µM (inactive)	–	> 100 µM (inactive)	–	> 100 µM (inactive)	> 100 µM (inactive)	> 100 µM (inactive)	46.7 µM (inactive)	> 100 µM (inactive)	> 100 µM (inactive)	> 100 µM (inactive)	> 100 µM (inactive)	> 100 µM (inactive)
